Reference: patent US5739145A (priority 1993, dated 1998)
Structures can show the parent of a compound that is named as a salt.

Key:
[1] = system: guinea pigs (cough by mechanical airway stimulation); experiment: Antitussive effect by guinea pig airway stimulation method; type: in vivo, guinea pig (male Hartley); details: for ED50: Cavia porcellus, sc, guinea pig airway stimulation; for Number of animals exhibiting coughing/number of animals tested: guinea pig, s.c.
Experimental: A group of five male Hartley guinea pigs (5 weeks old) with a body weight of 330-380 g were used. They were fixed in the supine position under light anesthesia by intraperitoneal administration of 15 mg/kg of pentobarbital sodium, and the necks were cut open to expose the airways. A small hole was opened in each exposed airway, from which stimulating hair was inserted about 3 cm into the airway at a 30° angle to stimulate the wall of the airway, and the occurrence or lack of coughing was noted. […] The test compounds were subcutaneously administered, and the stimulation was performed twice at each point 15, 30, 60 and 120 minutes after administration, pronouncing effective those cases in which no coughing occurred either time.

κ-receptors = target: T1, κ-receptors (Mus musculus, UniProt P33534); experiment: Antagonism by the κ-antagonist norBNI in extracted mouse vas deferens; type: cell-based; details: Ke=[antagonist]/(IC50 ratio -1)
T1 construct: from tissue; host or cells: vas deferens of male ddy mice
Experimental: (§1) Male ddy mice were provided for experimentation. Vas deferens extracted from the mice were suspended in a Magnus tube filled with a 37° C.-heated Krebes-Henseleit solution ([…], 4.7 mM KCl, 2.5 mM CaCl2, 1.1 mM KH2 PO4, 25 mM NaHCO3, 11 mM glucose) and aerated with 5% carbon dioxide and 95% oxygen. A 0.1 Hz, 5.0 mS electrical stimulus was applied via an annular platinum electrode. The tissue contraction was recorded on a polygraph using an isometric transducer.
(§2) Then, the sample was adequately washed with a nutrient solution, and when the contraction reaction stabilized, the μ-antagonist naloxone, the δ-antagonist NTI or the κ-antagonist norBNI was added thereto, and after about 20 minutes the test compound was once again added cumulatively. The Ke value was calculated from the difference in potency between the two, according to the following equation. Ke=[concentration of added antagonist]/(IC50 ratio -1) IC50 ratio=IC50 value in presence of antagonist/IC50 value in absence of antagonist

[2] = system: rats (capsaicin-induced cough); experiment: animal or person; type: in vivo; details: Rattus norvegicus, ip, 0.5 h
mouse vas deferens = experiment: Opioid activity test using extracted mouse vas deferens sample (inhibition of electrically stimulated contraction); type: cell-based, mouse (male ddy)
Experimental: as §1, §2

δ opioid receptor = target: T2, δ opioid receptor (Mus musculus, UniProt P32300); experiment: Antagonism by the δ-antagonist NTI in extracted mouse vas deferens; type: cell-based; details: Ke=[antagonist]/(IC50 ratio -1)
T2 construct: from tissue; host or cells: vas deferens of male ddy mice
Experimental: as §1, §2

μ-receptors = target: T3, μ-receptors (Mus musculus, UniProt P42866); experiment: Antagonism by the μ-antagonist naloxone in extracted mouse vas deferens; type: cell-based; details: Ke=[antagonist]/(IC50 ratio -1)
T3 construct: from tissue; host or cells: vas deferens of male ddy mice
Experimental: as §1, §2

T2 sequence (P32300 whole entry): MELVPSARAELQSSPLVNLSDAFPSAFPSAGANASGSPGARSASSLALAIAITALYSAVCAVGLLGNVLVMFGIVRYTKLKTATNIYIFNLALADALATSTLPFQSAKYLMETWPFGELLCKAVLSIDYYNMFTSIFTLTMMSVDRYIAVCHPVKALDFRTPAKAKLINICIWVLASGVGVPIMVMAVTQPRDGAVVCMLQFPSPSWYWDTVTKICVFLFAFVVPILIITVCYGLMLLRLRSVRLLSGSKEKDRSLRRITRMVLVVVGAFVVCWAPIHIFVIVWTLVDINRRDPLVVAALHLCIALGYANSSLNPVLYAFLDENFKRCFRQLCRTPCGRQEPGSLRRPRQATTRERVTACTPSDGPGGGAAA
T1 sequence (P33534 whole entry): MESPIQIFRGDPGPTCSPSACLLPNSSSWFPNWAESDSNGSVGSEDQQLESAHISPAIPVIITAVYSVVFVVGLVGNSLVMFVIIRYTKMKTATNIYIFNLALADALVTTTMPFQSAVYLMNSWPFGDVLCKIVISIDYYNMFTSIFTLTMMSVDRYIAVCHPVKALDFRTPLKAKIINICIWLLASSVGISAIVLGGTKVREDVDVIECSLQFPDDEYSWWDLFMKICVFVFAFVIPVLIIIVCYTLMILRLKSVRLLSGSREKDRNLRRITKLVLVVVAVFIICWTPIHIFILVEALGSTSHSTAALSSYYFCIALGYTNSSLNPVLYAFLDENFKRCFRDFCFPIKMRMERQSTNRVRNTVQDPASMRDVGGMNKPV
T3 sequence (P42866 whole entry): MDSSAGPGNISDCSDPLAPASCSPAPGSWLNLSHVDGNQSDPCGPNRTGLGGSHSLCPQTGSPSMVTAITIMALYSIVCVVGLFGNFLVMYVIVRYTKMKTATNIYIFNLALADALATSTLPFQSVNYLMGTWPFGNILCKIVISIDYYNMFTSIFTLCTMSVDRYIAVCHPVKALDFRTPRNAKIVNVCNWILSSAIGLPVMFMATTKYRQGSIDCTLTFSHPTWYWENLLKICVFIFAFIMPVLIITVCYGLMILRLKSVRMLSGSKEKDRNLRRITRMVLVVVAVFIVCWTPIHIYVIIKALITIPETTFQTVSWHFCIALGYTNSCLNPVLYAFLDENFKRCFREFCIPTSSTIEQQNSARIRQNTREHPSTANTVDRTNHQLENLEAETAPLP

Structure (SMILES)	ED50 [1]	Number of animals exhibiting coughing/number of animals tested ([1]; dosage 1 μg/kg)	Number of animals exhibiting coughing/number of animals tested ([1]; dosage 3 μg/kg)	Number of animals exhibiting coughing/number of animals tested ([1]; dosage 30 μg/kg)	Ke norBNI (κ-receptors)	ED50 [2]	IC50 (mouse vas deferens)	Ke NTI (δ opioid receptor)	Ke Naloxone (μ-receptors)
CN(C(=O)/C=C/c1ccoc1)[C@@H]1CC[C@@]2(O)[C@H]3Cc4ccc(O)c5c4[C@@]2(CCN3CC2CC2)[C@H]1O5 [Compound 5, 17-cyclopropylmethyl-4,5α-epoxy-3,14β-dihydroxy-6β-[N-methyl-trans-3-(3-furyl)acrylamido] morphinan.HCl]	3.7 µg/kg	2/5	3/5	5/5	0.164 nM	4.3 µg/kg	0.42 nM		
COc1ccc2c3c1O[C@H]1[C@H](N(C)C(=O)C#Cc4cccc(C)c4)CC[C@@]4(O)[C@@H](C2)N(CC2CC2)CC[C@]314 [Compound 13, 17-cyclopropylmethyl-4,5α-epoxy-3-methoxy-14β-hydroxy-6β-[N-methyl-3-(3-methylphenyl)propiolamido]morphinan.HCl]						12.1 µg/kg			
CN(CCc1ccc(Cl)c(Cl)c1)[C@@H]1CC[C@@]2(O)[C@H]3Cc4ccc(O)c5c4[C@@]2(CCN3CC2CC2)[C@H]1O5 [Compound 7, 17-cyclopropylmethyl-4,5α-epoxy-3,14β-dihydroxy-6β-[N-methyl-N-2-(3,4-dichlorophenyl)ethylamino]morphinan.1.9 HCl]						437 µg/kg			
CN(C(=O)/C=C/c1cccc(C(F)(F)F)c1)[C@@H]1CC[C@@]2(O)[C@H]3Cc4ccc(O)c5c4[C@@]2(CCN3CC2CC2)[C@H]1O5 [Compound 4, 17-cyclopropylmethyl-4,5α-epoxy-3,14β-dihydroxy-6β-(N-methyl-3-trifluoromethylcinnamamido)morphinan.tartrate]	2.6 µg/kg	1/5	3/5	5/5	3.20 nM	107 µg/kg	0.468 nM	291 nM	
Cc1cccc(/C=C/C(=O)N(C)[C@@H]2CC[C@@]3(O)[C@H]4Cc5ccc(O)c6c5[C@@]3(CCN4CC3CC3)[C@H]2O6)c1 [Compound 6, 17-cyclopropylmethyl-4,5α-epoxy-3,14β-dihydroxy-6β-(N-methyl-3-methylcinnamamido)morphinan.HCl]	12.5 µg/kg	1/5	1/5	4/5	1.95 nM		0.32 nM	64.5 nM	1780 nM
CN(C(=O)OCc1ccccc1)[C@@H]1CC[C@@]2(O)[C@H]3Cc4ccc(O)c5c4[C@@]2(CCN3CC2CC2)[C@H]1O5 [Compound 8, 17-cyclopropylmethyl-4,5α-epoxy-3,14β-dihydroxy-6β-(N-methyl-benzyloxycarbamido)morphinan.HCl]					1.00 nM	1.79 µg/kg	0.42 nM	532 nM	
CN(C(=O)/C=C/c1cccc(OC(F)(F)F)c1)[C@@H]1CC[C@@]2(O)[C@H]3Cc4ccc(O)c5c4[C@@]2(CCN3CC2CC2)[C@H]1O5 [Compound 10, 17-cyclopropylmethyl-4,5α-epoxy-3,14β-dihydroxy-6β-(N-methyl-3-trifluoromethoxycinnamamido)morphinan.tartrate]					0.17 nM	2.1 µg/kg		17.6 nM	10.8 nM
Cc1cccc(C#CC(=O)N(C)[C@@H]2CC[C@@]3(O)[C@H]4Cc5ccc(O)c6c5[C@@]3(CCN4CC3CC3)[C@H]2O6)c1 [Compound 11, 17-cyclopropylmethyl-4,5α-epoxy-3,14β-dihydroxy-6β-[N-methyl-3-(3-methylphenyl)propiolamido]morphinan.HCl]						13.5 µg/kg			
COc1ccc2c3c1O[C@H]1[C@H](N(C)C(=O)/C=C/c4ccoc4)CC[C@@]4(O)[C@@H](C2)N(CC2CC2)CC[C@]314 [Compound 12, 17-cyclopropylmethyl-4,5α-epoxy-3-methoxy-14β-hydroxy-6β-[N-methyl-trans-3-(3-furyl)acrylamido]morphinan.HCl]						0.12 µg/kg			
O=C(CCc1ccccc1)O[C@H]1CC[C@@]2(O)[C@H]3Cc4ccc(O)c5c4[C@@]2(CCN3CC2CC2)[C@H]1O5 [Compound 9, 17-cyclopropylmethyl-4,5α-epoxy-3,14β-dihydroxy-6α-(3-phenylpropionyloxy)morphinan.tartrate]						3300 µg/kg			
